Data published in US11891703B2, “Corrosion inhibition package” (DORF KETAL CHEMICALS FZE, priority 2017, dated 2024).

How the values were obtained:
[1] = cited from earlier work
[2] = Corrosion test of acid compositions with corrosion inhibition package on 1018 steel coupons; conditions: Table 3, 1.2:1 HCl-Urea, 50% dilution in seawater, 90° C., 6 hours, 1% package + 1% CI-1A
Description: Various types of steel alloy coupons were subjected to corrosion testing in the presence of conventional, synthetic and modified acid compositions using corrosion inhibitor components according to preferred embodiments of the present invention at various temperatures. Coupons of various grades of steel alloys (indicated in each table) were exposed to the various listed compositions for various periods of time at varying temperatures.
The following corrosion testing outlined in the tables below for a number of different corrosion inhibition packages according to the present invention in the presence of a synthetic or modified acid composition was carried out diluted with saline water (in most cases) at various temperatures for various durations of exposure. Depending on the intended use/application of an acidic fluid composition comprising a corrosion inhibitor package according to the present invention, a desirable result would be one where the lb/ft^2 corrosion number is at or below 0.05. A more desirable would be one where the corrosion (in lb/ft^2) is at or below 0.02. Generally, seawater has the deleterious effect of potentiating corrosion, consequently corrosion inhibition packages which follow the guidelines or regulations for offshore oil production are highly desirable for operators. Where applicable the fluids (acid compositions) were diluted as indicated.

[3] = death can occur in 2-3 minutes; cited from earlier work
[4] = cited from earlier work; remark: listed apart in the source

CCCCCCOCCOCCOCCO [NOVEL® 6-3 Ethoxylate, CH3 (CH2)4CH2(OCH2CH2)3OH]
solubility in hydrocarbons [1]: soluble
solubility in water [1]: sparingly soluble

O=CC=Cc1ccccc1 [ZA, Cinnamaldehyde]
Corrosion lb/ft2 [2]: 0.008 lb/ft2
Corrosion rate Mils/yr [2]: 296.053 Mils/yr
Corrosion rate mm/year [2]: 7.52 mm/year
Wt loss [2]: 0.168 g

Cl [Hydrogen chloride gas, Hydrogen chloride]
level at which death can occur [3]: 1300-2000 ppm

C#CCO [propargyl alcohol]
performance on Cr-13 alloys (pitting) [4]: poor performance
